Experimental data published in PubChem BioAssay (NCI).
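Interpolation was linear, between the two tested concentrations surrounding the appropriate level; five concentrations were tested over 48 hours in 96-well plates. TGI: concentration producing complete growth inhibition.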

Key:
Experiment in all cases: inhibition of tumour cell growth, NCI panel, 48 h
HCT-116 colon = test system: HCT-116 colon
MOLT-4 leukemia = test system: MOLT-4 leukemia
TK-10 renal = test system: TK-10 renal
MDA-MB-231 breast = test system: MDA-MB-231 breast
OVCAR-8 ovarian = test system: OVCAR-8 ovarian
UACC-62 melanoma = test system: UACC-62 melanoma
PC-3 prostate = test system: PC-3 prostate
A498 renal = test system: A498 renal
OVCAR-4 ovarian = test system: OVCAR-4 ovarian
NCI-H226 lung = test system: NCI-H226 lung
UO-31 renal = test system: UO-31 renal
SNB-19 CNS = test system: SNB-19 CNS
CAKI-1 renal = test system: CAKI-1 renal
SK-MEL-2 melanoma = test system: SK-MEL-2 melanoma
A549 NSCLC = test system: A549 NSCLC
UACC-257 melanoma = test system: UACC-257 melanoma
SR leukemia = test system: SR leukemia
HT29 colon = test system: HT29 colon
HOP-92 NSCLC = test system: HOP-92 NSCLC
K-562 leukemia = test system: K-562 leukemia
SK-MEL-28 melanoma = test system: SK-MEL-28 melanoma
HS 578T breast = test system: HS 578T breast
MDA-N = test system: MDA-N
HCT-15 colon = test system: HCT-15 colon
SK-MEL-5 melanoma = test system: SK-MEL-5 melanoma
HL-60(TB) leukemia = test system: HL-60(TB) leukemia
MDA-MB-435 = test system: MDA-MB-435
HOP-62 NSCLC = test system: HOP-62 NSCLC
U251 CNS = test system: U251 CNS
RXF 393 renal = test system: RXF 393 renal
OVCAR-5 ovarian = test system: OVCAR-5 ovarian
ACHN renal = test system: ACHN renal
SW-620 colon = test system: SW-620 colon
HCC-2998 colon = test system: HCC-2998 colon
NCI-H460 lung = test system: NCI-H460 lung
SN12C renal = test system: SN12C renal
RPMI-8226 leukemia = test system: RPMI-8226 leukemia
NCI/ADR-RES ovarian = test system: NCI/ADR-RES ovarian
BT-549 breast = test system: BT-549 breast
SF-295 CNS = test system: SF-295 CNS
OVCAR-3 ovarian = test system: OVCAR-3 ovarian
M14 melanoma = test system: M14 melanoma
IGROV1 ovarian = test system: IGROV1 ovarian
MALME-3M melanoma = test system: MALME-3M melanoma
786-0 renal = test system: 786-0 renal
LOX IMVI melanoma = test system: LOX IMVI melanoma
SF-268 CNS = test system: SF-268 CNS
T-47D breast = test system: T-47D breast
DU-145 prostate = test system: DU-145 prostate
EKVX NSCLC = test system: EKVX NSCLC
KM12 colon = test system: KM12 colon
NCI-H23 lung = test system: NCI-H23 lung
NCI-H522 lung = test system: NCI-H522 lung
CCRF-CEM leukemia = test system: CCRF-CEM leukemia
COLO 205 colon = test system: COLO 205 colon
SK-OV-3 ovarian = test system: SK-OV-3 ovarian
SNB-75 CNS = test system: SNB-75 CNS

Measured: TGI

Cc1cc(OCC(=O)O)c(Cl)cc1Cl
not listed: CCRF-CEM leukemia | COLO 205 colon | SK-OV-3 ovarian | SNB-75 CNS
> 100 µM: all other assays above

CC(C)(C)/C(O)=C\c1nc2ccc(C(F)(F)F)cc2[nH]c1=O
not listed: HL-60(TB) leukemia | HCC-2998 colon | NCI-H460 lung
> 100 µM: all other assays above
